The results in this text go back to PubChem BioAssay (NCI).

Test systems include PC-3 prostate; MDA-MB-231 breast; T-47D breast; M19-MEL melanoma; HOP-18 NSCLC; DLD-1 colon; XF 498 CNS; DMS 114 small cell lung; SNB-78 CNS; DMS 273 small cell lung; KM20L2 colon.
Assay in all cases: NCI-60 cell line screen, 48 h

SMILES strings stand for the structures. Where “and” joins values, the source holds several entries; their conditions need not be identical. Equal entries are not always repeated.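 Briefly, cells in 96-well plates were exposed to five compound concentrations for 48 h, and endpoints were estimated by linear interpolation. Here, GI50 denotes the concentration required for 50% inhibition of growth. TGI: total growth inhibition.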 Bounds are passed on as bounds.

On to `CC(C)=CCC/C(C)=C/CC/C(C)=C/[C@@H]1[C@@H](CO)[C@]1(C)CC/C=C(\C)CCC=C(C)C`, for which the values for the TGI in the assay with PC-3 prostate, in the assay with MDA-MB-231 breast and with T-47D breast were 56.5 µM, 52.2 µM and > 100 µM, respectively.
Consider `Cc1cc(N2CCOCC2)nc(N(CCCNc2ccnc3cc(Cl)ccc23)Cc2ccc3c(c2)OCO3)n1`, for which the figures for the GI50 in the assay with PC-3 prostate, with MDA-MB-231 breast and with T-47D breast were 1.62 µM, 1.68 µM and 1.41 µM, respectively. Besides, the TGI in the assay on PC-3 prostate came out at 3.24 µM; with MDA-MB-231 breast, 3.32 µM; in the assay with T-47D breast, 3.93 µM.
For the compound `CC(Br)C(=O)c1ccc2cc(Br)c3ccccc3c2c1` (stereo not given), the TGI in the assay with MDA-MB-231 breast was determined as 30.2 µM; with T-47D breast, 30.5 µM.
For `COC1OC(C(=O)CP(=O)(OC)OC)C(OCc2ccccc2)C(OCc2ccccc2)C1OCc1ccccc1` (stereo not given), the TGI was 28.1 µM and 28.7 µM in the assay with PC-3 prostate; 31.7 µM and 29.9 µM in the assay on MDA-MB-231 breast; 39.6 µM and 43.7 µM in the assay with T-47D breast.
Consider `O=C(COC(c1ccc(F)cc1)c1ccc(F)cc1)N1CCN(CCCc2ccccc2)CC1`, for which the TGI was found to be 11.9 µM in the assay on PC-3 prostate, 11.3 µM in the assay with MDA-MB-231 breast and 9.35 µM with T-47D breast.
On the same counts, the results for `NC(CCc1ccccc1)(C(=O)O)c1ccccc1` (stereo not given) are > 100 µM, > 100 µM and > 100 µM.
Consider `CCOC(=O)C(C)OC(=O)c1ccc(C)cc1` (stereo not given), for which the TGI with M19-MEL melanoma, with HOP-18 NSCLC, in the assay on DLD-1 colon, in the assay with XF 498 CNS, in the assay on DMS 114 small cell lung and in the assay on SNB-78 CNS was > 100 µM throughout. The TGI in the assay on DMS 273 small cell lung and with KM20L2 colon was > 100 µM throughout.
For `Fc1cc(C2=C[C@H](c3ccc4c(c3)OCO4)NC(=S)N2)c(Cl)cc1Cl`, the TGI in the assay on PC-3 prostate was 85.8 µM; with MDA-MB-231 breast it was > 100 µM; in the assay on T-47D breast it was > 100 µM.
For `CC(C)(C)c1ccc(O)c(Br)c1`, the TGI in the assay with PC-3 prostate, with MDA-MB-231 breast and with T-47D breast was > 100 µM in each case.
As to `COc1cccc(/C=N/[N-]C(N)=O)c1[O-].[Cu+2].[OH3+].c1cnc2c(c1)ccc1cccnc12`, in the assay on XF 498 CNS, the GI50 was 2.3 µM and the TGI stood at 6.36 µM. Also, in the assay on KM20L2 colon, the TGI was > 100 µM.
`Clc1ccc(NCc2nnc(COc3ccc(OCc4nnc(CNc5ccc(Cl)cc5)o4)c(Cl)c3)o2)cc1`: the TGI with PC-3 prostate is > 100 µM; in the assay with MDA-MB-231 breast it was 63.3 µM; in the assay with T-47D breast, > 100 µM.
As to `COc1cc(S(=O)(=O)N/N=C/C=C/c2ccccc2)c(OC)cc1NC(C)=O`, the TGI with PC-3 prostate and in the assay on T-47D breast was > 100 µM each time.
As for `COC(=O)c1c(O)ccc2c1c1c(n2Cc2ccccn2)C(=O)c2ccccc2C1`, the TGI in the assay with PC-3 prostate is 90.2 µM; in the assay with MDA-MB-231 breast, > 100 µM.
For `Cc1cc(O)c2c(c1O)C(=O)c1c(O)ccc(O)c1C2=O`, the TGI in the assay on PC-3 prostate, with MDA-MB-231 breast and in the assay on T-47D breast was > 100 µM throughout.
For `O=CC(O)C(O)C(O)COc1cc(CO)cc2c1C(=O)c1ccccc1C2=O` (stereo not given), the TGI with M19-MEL melanoma, with HOP-18 NSCLC, in the assay with DLD-1 colon, in the assay with XF 498 CNS, with DMS 114 small cell lung and with SNB-78 CNS was > 100 µM throughout. Also, the TGI in the assay on DMS 273 small cell lung and in the assay on KM20L2 colon was > 100 µM throughout.
`C/C(=C\CNc1ncnc2nc(Cl)[nH]c12)CO`: the TGI in the assay with PC-3 prostate, in the assay on MDA-MB-231 breast and with T-47D breast was > 100 µM each time.
`CN(C)C/C=C(/c1ccc(Br)cc1)c1cccnc1`: the TGI in the assay on PC-3 prostate, in the assay with MDA-MB-231 breast and with T-47D breast was > 100 µM throughout.
On to `O=c1oc2c(ccc3occc32)c(N2CCCCC2)c1-c1ccccc1`, for which the TGI in the assay with M19-MEL melanoma, with HOP-18 NSCLC, with DLD-1 colon, with XF 498 CNS, in the assay on DMS 114 small cell lung and in the assay on SNB-78 CNS was > 100 µM each time. For the same compound, the TGI in the assay on DMS 273 small cell lung and with KM20L2 colon was > 100 µM throughout.
With `CCN(CC)/[N+]([O-])=N/OC`, the TGI in the assay on M19-MEL melanoma, with XF 498 CNS, in the assay with SNB-78 CNS, with DMS 273 small cell lung and in the assay on KM20L2 colon was > 100 µM throughout.
For the compound `CCOC(=O)C(=CNC(Cc1c[nH]c2ccccc12)C(=O)OC)C(=O)OCC` (stereo not given), the TGI with M19-MEL melanoma, in the assay with HOP-18 NSCLC, in the assay on DLD-1 colon, in the assay with XF 498 CNS, with DMS 114 small cell lung and in the assay with SNB-78 CNS was > 100 µM throughout. Also, the TGI in the assay with KM20L2 colon is > 100 µM.
Regarding `CC(C)(C)OC(=O)N1C(C2=COc3ccccc3O2)=COc2cccnc21`, the TGI in the assay on PC-3 prostate was 6.04 µM; with MDA-MB-231 breast, 4.01 µM; in the assay on T-47D breast, 3.45 µM.
On the same counts, the results for `NCCCCN` are > 100 µM, > 100 µM and > 100 µM.
On the same counts, the results for `Cn1c2c(c3c(=O)[nH]ncc31)CCc1ccccc1-2` are > 100 µM, 47.3 µM and > 100 µM.
`COC(=N)C(C)C`: the TGI with M19-MEL melanoma, in the assay with DLD-1 colon, in the assay on DMS 114 small cell lung, in the assay on SNB-78 CNS, in the assay on DMS 273 small cell lung and in the assay on KM20L2 colon was > 100 µM each time.
For `NC(N)=NS(=O)(=O)c1ccc(Nc2c3ccccc3nc3c(C(=O)N4CCN(CCO)CC4)ccc(Cl)c23)cc1`, the TGI in the assay with M19-MEL melanoma, with DLD-1 colon, in the assay on XF 498 CNS, with DMS 114 small cell lung, in the assay on SNB-78 CNS and in the assay on KM20L2 colon was > 100 µM in each case.
Regarding `C=C1CCCC(C)(C)[C@@H]1CC/C(C)=C/Cn1c2cccc(=O)c-2nc2ccccc21`, the GI50 was 3.07 µM in the assay with M19-MEL melanoma; 37.2 µM in the assay with HOP-18 NSCLC; 4.86 µM in the assay on DLD-1 colon; 2.8 µM in the assay with XF 498 CNS; 4.35 µM in the assay on SNB-78 CNS; 3.02 µM in the assay on DMS 273 small cell lung. For the same compound, the TGI was > 100 µM and 18.2 µM with HOP-18 NSCLC; 2.3 µM with DMS 114 small cell lung; > 100 µM in the assay with SNB-78 CNS; 24.1 µM and 3.29 µM in the assay on DMS 273 small cell lung.
`O=C(N/N=C\c1ccc([N+](=O)[O-])cc1)Nc1ccccc1`: the TGI in the assay on PC-3 prostate and in the assay with T-47D breast was > 100 µM each time.
For `CCOc1cc(NC(C)=O)ccc1C(=O)N/N=C/c1ccco1`, the TGI in the assay with PC-3 prostate, in the assay on MDA-MB-231 breast and in the assay with T-47D breast was > 100 µM in each case.
As for `O=P(O)(O)OP(=O)(O)O`, the TGI in the assay on PC-3 prostate, with MDA-MB-231 breast and in the assay on T-47D breast was > 100 µM in each case.
